Legend:
Format in all cases: in vivo
kochia (Bassia scoparia) = assay: Test A1 postemergence, kochia; details: for Kochia plant response rating: 31 g ai/ha, postemergence; for Plant response rating, Kochia: Postemergence, 125 g ai/ha
In short: (§1)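 Plants were grown in a loam soil/sand blend, with test chemicals formulated in a non-phytotoxic solvent mixture containing surfactant. Preemergence treatment (corn) was a directed soil spray at planting. Postemergence treatment was applied to plants 2 to 10 cm tall at the one- to two-leaf stage.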

[1] = system: goosegrass (Eleusine indica); assay: Test A1 preemergence, goosegrass
In short: (§2)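 Test compounds were formulated in a non-phytotoxic solvent mixture containing a surfactant. For preemergence, seeds sown in a loam soil–sand blend received a directed soil spray. For postemergence, potted plants in the same soil, 2 to 10 cm tall at the one- to two-leaf stage, were sprayed.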

corn (Zea mays) = assay: Test A1 preemergence, corn
In short: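 Plants grown in pots of loam/sand mix; preemergence = soil-directed spray on seeded pots, postemergence = spray at 1–2 leaves, height 2–10 cm; test chemicals formulated in non-phytotoxic solvent with surfactant.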

[2] = system: blackgrass (Alopecurus myosuroides); assay: Test A1 preemergence, blackgrass
In short: as §2

[3] = system: Ryegrass, Italian (Italian ryegrass, Lolium multiflorum); assay: Test A1 postemergence, Ryegrass, Italian; details: for Ryegrass, Italian plant response rating: 31 g ai/ha, postemergence; for Plant response rating, Ryegrass, Italian: Postemergence, 125 g ai/ha
In short: as §1

[4] = system: barnyardgrass (Echinochloa crus-galli); assay: Test B1 flooded paddy test, barnyardgrass; details: 250 g ai/ha, Flood, applied to paddy water, 2-leaf stage, visually evaluated after 10 to 14 days
Description: A dash (-) response means no test result.

[5] = 0 to 100 scale (0 no effect, 100 complete control)
[6] = 31 g ai/ha, 0 to 100 scale (0 no effect, 100 complete control)
[7] = 125 g ai/ha, 0 to 100 scale, 0 no effect, 100 complete control
[8] = 0 to 100 scale (0 no effect, 100 complete control), 10 days

Compound	Kochia plant response rating (kochia (Bassia scoparia); [5])	Plant response rating, Kochia (kochia (Bassia scoparia); 0 to 100 scale)	Plant response rating, Goosegrass [1, 6]	Plant response rating, Goosegrass [1, 7]	Plant response rating, Corn (corn (Zea mays); [6])	Plant response rating, Corn (corn (Zea mays); [7])	Plant response rating, Blackgrass [2, 6]	Plant response rating, Blackgrass [2, 7]	Ryegrass, Italian plant response rating [3, 5]	Plant response rating, Ryegrass, Italian ([3]; 0 to 100 scale)	Plant response rating, Barnyardgrass (0 to 100 scale, 0 is no effect, 100 is complete control) [4]	Plant response rating, Kochia (kochia (Bassia scoparia); [8])	Plant response rating, Ryegrass, Italian [3, 8]	Plant response rating, Goosegrass ([1]; 125 g ai/ha, 0 to 100 scale (0 no effect, 100 complete control))
Cc1c(C(=O)N2C[C@@H](C)O[C@H](C)C2)cc(N(COC(=O)C(C)(C)C)S(=O)(=O)C(F)(F)F)c(C)c1C (relative stereo) [Compound 373]	0	10	30	100	0	20	30	30	0	30	95			
CCOC(=O)N(c1cc(C(=O)N2C[C@@H](C)O[C@H](C)C2)c(C)c(C)c1C)S(=O)(=O)C(F)(F)F (relative stereo) [Compound 374]	0	10	60	100	20	40	0	0	0	50	40			
Cc1c(NS(=O)(=O)C(F)(F)F)cc(C(=O)N2CCC(C)CC2)c(C)c1C [Compound 366]	0	30	10	80	0	10	0	50	0	20	15			
COC1CCN(C(=O)c2cc(NS(=O)(=O)C(F)(F)F)c(C)c(C)c2C)CC1 [Compound 367]	20	30	60	80	10	90	0	0	0	0	60			
C#CCN(C)C(=O)c1cc(NS(=O)(=O)C(F)(F)F)c(C)c(C)c1C [Compound 368]	60	80	70	90	0	90	10	40	20	90	70			
COC1CCN(C(=O)c2cc(N(COC(=O)C(C)(C)C)S(=O)(=O)C(F)(F)F)c(C)c(C)c2C)CC1 [Compound 370]	0	20	30	90	0	0	0	0	0	0	95			
C#CCN(C)C(=O)c1cc(N(COC(=O)C(C)(C)C)S(=O)(=O)C(F)(F)F)c(C)c(C)c1C [Compound 371]	40	70	0	90	0	90	0	20	20	80	95			
Cc1cc(C)c(C2=NOC3OCCCC23)cc1NS(=O)(=O)C(F)(F)F (stereo not drawn) [Compound 372]	0	0	90	100	0	10	0	40	0	50	20			
CCC1CC(c2cc(NS(=O)(=O)C(F)(F)F)c(C)cc2C)=NO1 (stereo not drawn) [Compound 375]	0	60	70	100	0	70	20	50	0	40	50			
Cc1ccc(C2=NOC3CCCC23)cc1NS(=O)(=O)C(F)(F)F (stereo not drawn) [Compound 377]	20	30	0	20	0	0			0	0	0			
CCc1cc(C)c(N(COC(=O)C(C)(C)C)S(=O)(=O)C(F)(F)F)cc1C1=NOC2CCCC12 (stereo not drawn) [Compound 378]	0	60	20	50	0	0			0	0	95			
Cc1c(NS(=O)(=O)C(F)(F)F)cc(C2=NOC3(CCCC3)C2)c(C)c1C [Compound 380]	30		50	100	0	30			0		98	50	60	
Cc1c(C2=NOC3(CCCC3)C2)cc(N(COC(=O)C(C)(C)C)S(=O)(=O)C(F)(F)F)c(C)c1C [Compound 382]	0		0	30	0	0			0		90	30	0	
Cc1cc(C)c(N(COC(=O)C(C)(C)C)S(=O)(=O)C(F)(F)F)cc1C1=NOC(C(C)C)C1 (stereo not drawn) [Compound 383]	20		0	80	0	0			0		98	20	0	
CCOc1cccc2c1C(=O)N(c1cc(N(COC(=O)C(C)(C)C)S(=O)(=O)Cl)c(C)cc1C)C2 [Compound 414]	1		0		0	10			0		0	50	0	0

Reference: US20230278972A1, “SUBSTITUTED HALOALKYL SULFONANILIDE HERBICIDES” (FMC Corporation, priority 2020, published 2023)
